B1: NT-3: NGF related neurotrophic factor neurotrophin-3; HPLC-purified from Genentech or as COS cell supernatant (protein, UniProt P20783 139-257, looked up)
Neurotrophin-3: YAEHKSHRGEYSVCDSESLWVTDKSSAIDIRGHQVTVLGEIKTGNSPVKQYFYETRCKEARPVKNGCRGIDDKHWNSQCKTSQTYVRALTSENNKLVGWRWIRIDTSCVCALSRKIGRT

Tests used:
gp140^prototrk = biological target: T1, gp140^prototrk (Rattus norvegicus, UniProt P35739); test: trk tyrosine phosphorylation in PC12 cells treated with NGF (32P labelling / Ptyr immunoblot of trk immunoprecipitates); format: cell-based; conditions: 15 min at 37° C., 100 ng/ml FGF or EGF, 100 nM insulin, 1 μg/ml PMA
T1 construct: tyrosine phosphorylation in response to NGF addition to PC12 cells; endogenous in cells; host or cells: PC12 cells
T1 sequence (P35739 33-799): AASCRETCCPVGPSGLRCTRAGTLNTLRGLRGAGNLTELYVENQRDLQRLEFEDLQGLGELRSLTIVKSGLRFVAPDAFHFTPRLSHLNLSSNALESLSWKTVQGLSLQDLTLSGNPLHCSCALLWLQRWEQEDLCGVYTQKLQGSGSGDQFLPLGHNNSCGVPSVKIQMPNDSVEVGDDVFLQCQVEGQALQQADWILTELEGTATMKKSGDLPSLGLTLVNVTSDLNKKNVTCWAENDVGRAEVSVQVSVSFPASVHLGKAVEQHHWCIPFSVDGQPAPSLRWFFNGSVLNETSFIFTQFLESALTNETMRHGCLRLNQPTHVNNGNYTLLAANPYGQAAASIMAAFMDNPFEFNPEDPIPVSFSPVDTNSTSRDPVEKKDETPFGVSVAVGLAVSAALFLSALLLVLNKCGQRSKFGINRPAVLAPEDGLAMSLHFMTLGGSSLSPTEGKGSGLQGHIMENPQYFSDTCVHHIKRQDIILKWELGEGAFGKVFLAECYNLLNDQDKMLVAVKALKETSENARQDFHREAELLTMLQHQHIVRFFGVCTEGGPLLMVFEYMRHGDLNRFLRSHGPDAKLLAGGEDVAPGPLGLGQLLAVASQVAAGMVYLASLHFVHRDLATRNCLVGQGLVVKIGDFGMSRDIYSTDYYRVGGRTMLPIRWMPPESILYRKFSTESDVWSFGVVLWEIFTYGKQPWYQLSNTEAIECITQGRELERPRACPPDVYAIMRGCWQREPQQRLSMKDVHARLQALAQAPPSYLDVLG
Experimental: FIGS. 1A-C show the tyrosine phosphorylation of gp140trk in PC12 cells and trk-expressing NIH-3T3 cells treated with NGF. FIG. 1A, gp140trk immunoprecipitated from PC12 cells or trk-expressing 3T3 cells labeled with ^32 P-orthophosphate. Immunoprecipitates were prepared with rabbit anti-trk antisera 43-4 (D. Martin-Zanca et al., Mol Cell. Biol. 9:24-33 (1989)) from lysates prepared from 3T3 cells expressing the rat trk gene (trk 3T3) (lane 1) or PC12 cells treated for 5 min with 100 ng/ml NGF at 37° C. (lanes 2 and 4) or mock treated (lane 3). The immunoprecipitate shown in lane 2 was prepared in the presence of the peptide used to generate the rabbit 43-4 trk antibody (Martin-Zanca et al., (1989)). Shown in FIG. 1B is the phosphoamino acid analysis of trk proteins phosphorylated in vitro in p140trk immunoprecipitates from NGF treated PC12 cells in vivo from NGF treated (+) or untreated (-) PC12 cells, or in vivo from trk 3T3 cells. The positions of phosphoserine (S), phosphothreonine (T), and phosphotyrosine (Y) are indicated. FIG. 1C, trk proteins from trk 3T3 cells phosphorylated […]. In lanes 1-3, gp140trk immunoprecipitates were probed with P-tyr antibodies. In lanes 4-6, gp140trk proteins were phosphorylated in vitro in kinase assays. Cells were treated with suramin (lanes 2 and 5) or with 500 ng/ml NGF for 10 min following suramin treatment. The band migrating at 110 kDa is a glycosylation precursor of gp140^prototrk (Martin-Zanca et al., (1989)). The band at the bottom of the figure is IgG. Molecular weight markers in kDa are indicated.
rtrk 3T3 cells were generated by CaPO4 mediated transfection of a rat trk cDNA into NIH-3T3 cells. Rat trk cDNAs were obtained from an embryonic rat DRG cDNA library. The longest trk cDNA obtained (2.4 kbp) was missing approximately 150 bp of the coding region as compared to available mouse and human trk sequence. The missing bases plus minimal (~50 bp) 5' flanking non-coding sequences were replaced from mouse first coding exon sequences and the reconstructed gene was placed downstream of an MSV-LTR. PC12 cells or rtrk 3T3 cells (2×10^7) were labeled with ^32 P orthophosphate (1 mCi.ml in 4 ml) for 4 hr at 37° C. Cells were treated with NGF for the indicated times, washed, lysed in buffer containing 1% NP40, and the lysates immunoprecipitated with trk antibody 43-4 (D. R. Kaplan et al., Cell 61:125-133 (1990)) and electrophoresed on 7.5% SDS-PAGE gels as previously described (Kaplan et al., (1990)). For b, the phosphorylated trk bands were eluted from the gel and phosphoamino acid analysis performed as described (B. M. Sefton et al., J. Cell 24:165-174 (1981)). gp140trk protein from NGF treated PC12 cells was phosphorylated in vitro. For c, rtrk 3T3 cells were treated with 1 mM suramin in Dulbecco's Modified Eagle Medium (DMEM) for 2 h or mock treated. Following extensive washing of the cells with DMEM, NGF was added for the time indicated. Cells were lysed and the lysates were immunoprecipitated with trk antibody. Immunoprecipitates were either subjected to immunoblot analysis with the phosphotyrosine (Ptyr) monoclonal antibody 4G10 (Lanes 1-3), or were analyzed in kinase assays. (D. K. Morrison, et al. Cell 58:649-657 (1989) and Kaplan et al., (1990)). Similar amounts of trk protein were present in each lane.
FIGS. 2A-C. Time course, growth factor specificity, and dose response of trk tyrosine phosphorylation in PC12 cells. A, Time course of trk tyrosine phosphorylation. Cells (2×10^7) were treated with 50 ng/ml NGF at 37° C. B, Effects of growth and differentiation factors on trk tyrosine phosphorylation. Cells were treated with 100 ng/ml NGF, 100 ng/ml basic fibroblast growth factor (FGF) (Boehringer Mannheim Biochemicals), 100 ng/ml epidermal growth factor (EGF) (Upstate Biotechnology, Inc.), 100 nM insulin (Sigma), or 1 μg/ml phorbal 12-myristate […] (PMA) (Sigma) for 15 min. at 37° C. C, dose response of trk tyrosine phosphorylation. […]

p140^prototrk = p140^prototrk (Rattus norvegicus, UniProt P35739); test: trk tyrosine phosphorylation in rtrk-3T3 cells, suramin treatment followed by NGF (in vivo and immune complex kinase assays); format: cell-based; conditions: rtrk-3T3 cells, 1 mM suramin for 2 h
p140^prototrk, sequence (P35739 33-799): as above
Experimental: rtrk 3T3 cells were generated by CaPO4 mediated transfection of a rat trk cDNA into NIH-3T3 cells. […] PC12 cells or rtrk 3T3 cells (2×10^7) were labeled with ^32 P orthophosphate (1 mCi.ml in 4 ml) for 4 hr at 37° C. […] For c, rtrk 3T3 cells were treated with 1 mM suramin in Dulbecco's Modified Eagle Medium (DMEM) for 2 h or mock treated. Following extensive washing of the cells with DMEM, NGF was added for the time indicated. Cells were lysed and the lysates were immunoprecipitated with trk antibody. Immunoprecipitates were either subjected to immunoblot analysis with the phosphotyrosine (Ptyr) monoclonal antibody 4G10 (Lanes 1-3), or were analyzed in kinase assays. […] Similar amounts of trk protein were present in each lane.

gp145^trkB = gp145^trkB tyrosine phosphorylation in trkB-expressing NIH 3T3 cells (pJM8 lines), immunoprecipitation and α-Ptyr Western; format: cell-based, rat; conditions: for time to detection of trkB tyrosine phosphorylation / time to maximal levels of trkB tyrosine phosphorylation / concentration giving maximal gp145^trkB phosphorylation: pJM8-3 cells; for time to detection of trkB tyrosine phosphorylation / time to maximal levels of trkB tyrosine phosphorylation: 100 ng/ml; for concentration giving maximal gp145^trkB phosphorylation: dose response 0.1 to 250 ng/ml; for tyrosine phosphorylation of gp145^trkB: pJM8 trkB-expressing NIH 3T3 cells, 100 ng/ml factor, 5 min
Experimental: A 4.8 kb cDNA encompassing the coding domain of rat trkB (Middlemas et al., (1991)) was cloned into the pMEX plasmid (pJM8) downstream of the MSV promoter. NIH 3T3 cells were cotransfected with the pJM8 plasmid and a plasmid containing the neomycin phosphotransferase gene (L. F. Parada et al., Nature 312:649-651 (1984)), and G418-resistant colonies were selected. PC12 cells (Greene and Tischler, 1976) were grown in DMEM with 10% horse serum and 5% fetal calf serum. NIH 3T3 cells and the derivative cells lines were maintained in DMEM medium containing 10% calf serum. All cells were maintained in a humidified incubator at 37° C. in 5% CO2.
Approximately 10^7 cells were treated at 37° C. for 5 min with 100 ng/ml growth factors or at the concentrations and lengths of time noted in the text. NP-40 plate lysis and gp145^trkB immunoprecipitation with anti-serum 443 were performed as previously described (Kaplan et al., (1990), (1991)). The phosphotyrosine content was analyzed by Western transfer using monoclonal antibody 4G10 as previously described (Morrison et al., (1989)).
The product of the trk proto-oncogene (gp140^proto-trk) is tyrosine phosphorylated in response to NGF in PC12 cells, NGF-responsive neuroblastoma cells, heterologous fibroblasts and Xenopus oocytes (Kaplan et al., (1991); A. R. Nebreda et al., Science 252:558-560 (1991); Klein et al., (1991)). Next it was examined whether NGF elicited tyrosine phosphorylation of gp145^trkB in trkB-expressing NIH 3T3 cells. Cell line pJM8-3 was treated with high concentrations of NGF (100 ng/ml) for 5 minutes. The cells were lysed, immunoprecipitated with anti-trkB antiserum 443, transferred to nitrocellulose filters and probed with anti-phosphotyrosine (α-Ptyr) antibodies. As a negative control, untransfected NIH-3T3 cells were treated in parallel, while PC12 cells were used as a positive control for NGF responsiveness (Kaplan et al., (1991)).
BDNF and NT-3 are neurotrophic factors that display many functional and structural features that are reminiscent of NGF. The genes encoding BDNF and NT-3 have recently been cloned and used to express high levels of the biologically active factors in pure form (A. Rosenthal et al., Neuron 4:773 (1990)). It was tested whether these NGF-related neurotrophic factors would stimulate phosphorylation of the trkB glycoprotein by exposing the pJM-8 cell lines to 100 ng/ml of NGF, BDNF, or NT-3 (~4 nM) for 5 minutes. The cells were then lysed and the lysates incubated with a trkB anti-peptide antiserum (443) with or without excess peptide. After transfer to nitrocellulose filters, the trkB proteins were probed with an anti-phosphotyrosine (α-ptyr) monoclonal antibody (FIG. 10) (Kaplan et al. (1991)). […] Thus, both neurotrophic factors NT-3 and BDNF can elicit tyrosine phosphorylation of gp145^trkB in a manner similar to that observed for NGF stimulation of the trk receptor. Similar results have been obtained with NT-3 and BDNF in Rat2 cells expressing trkB.
Having detected gp145^trkB phosphorylation in response to BDNF and NT-3, it was next determined whether unrelated polypeptide growth factors were capable of eliciting a similar response. Platelet-derived growth factor (PDGF; 100 ng/ml), epidermal growth factor (EGF; 100 ng/ml), insulin (100 ng/ml), and basic fibroblast growth factor (bFGF; 100 ng/ml), were added independently to exponentially growing cultures of pJM8-3 cells.
The previous studies were done in the presence of high concentrations of neurotrophic factors. Dose response experiments were next performed to determine the range of concentrations at which phosphorylation of the trkB receptor was stimulated by NT-3 or BDNF. Cells were incubated with quantities of NT-3 or BDNF ranging from 0.1 ng/ml to 250 ng/ml and treated as described in FIG. 12. […]

trkB = test: Growth factor stimulation of trkB transfected 3T3 cells (pJM8-3), COS cell supernatants, Ptyr blot; format: cell-based; conditions: trkB-expressing 3T3 cells (pJM8-3), 100 μl/ml NT-3 COS cell supernatant, 10 minutes at 37° C.
Experimental: To study the expression of trkB in transfected cell lines, full length trkB cDNAs were cloned into CMV and MuLV LTR expression vectors and transfected into NIH-3T3 fibroblasts, PC 12 pheochromocytoma cells and NR18 cells (a derivative of PC12 cells). Stable G418 resident clones were picked and expanded. Assays to detect cell lines expressing trkB were performed by detergent lysis of the cells, followed by WGA-sepharose adsorption. The adsorbed material was analyzed by SDS-PAGE on 7.5% gels, transferred to nitrocellulose and probed with antisera 442, a trkB specific rabbit antisera. The Western blots contained a WGA-sepharose extract of mouse brain as a control and BIORAD prestained molecular weight standards (200, 116, 80 and 43 kDa).
To study growth factor stimulation in cells transfected with trkB, NIH 3T3 trk transfected 3T3 (pJM7-23), trkB transfected 3T3 cells (pJM8-3) and non-transfected 3T3 cells (control cells) were exposed to media or media containing 100 μl/ml of NGF-COS cell supernatant, 100 μl/ml NT-3 COS cell supernatant, 5 μl/ml human platelet extract, or 50 μl/ml human platelet extract, for 10 minutes at 37° C. The plates were rinsed, lysed, and the trk or trkB was immunoprecipitated with rabbit antisera 443 and protein A Sepharose in the presence or absence of 10 μg/ml blocking peptide. […]

| Molecule | induction of trk tyrosine phosphorylation by growth and differentiation factors (gp140^prototrk) | tyrosine phosphorylation of gp145^trkB (gp145^trkB) | other results |
| --- | --- | --- | --- |
| CCCCCCCCCCCCCC(=O)O[C@@H]1[C@@H](C)[C@@]2(O)[C@@H](C=C(CO)C[C@]3(O)C(=O)C(C)=C[C@@H]23)[C@@H]2C(C)(C)[C@]12OC(C)=O [PMA, phorbal 12-myristate 12-acetate, reference compound] | failed to induce | – | – |
| Cc1ccc(C(=O)Nc2ccc(S(=O)(=O)O)c3cc(S(=O)(=O)O)cc(S(=O)(=O)O)c23)cc1NC(=O)c1cccc(NC(=O)Nc2cccc(C(=O)Nc3cc(C(=O)Nc4ccc(S(=O)(=O)O)c5cc(S(=O)(=O)O)cc(S(=O)(=O)O)c45)ccc3C)c2)c1 [suramin, reference compound] | – | – | tyrosine phosphorylation of p140^prototrk in vivo and in immune complex kinase assays (p140^prototrk): markedly reduced |
| BDNF: NGF related neurotrophic factor, brain-derived neurotrophic factor | – | strong phosphorylation | time to detection of trkB tyrosine phosphorylation (gp145^trkB): one; time to maximal levels of trkB tyrosine phosphorylation (gp145^trkB): ≤ 5 min; concentration giving maximal gp145^trkB phosphorylation (gp145^trkB): 50 ng/mL |
| EGF: epidermal growth factor (Upstate Biotechnology, Inc.) [reference compound] | failed to induce | No tyrosine-phosphorylated gp145^trkB was detected | – |
| PDGF [reference compound] | – | No tyrosine-phosphorylated gp145^trkB was detected | – |
| basic FGF: basic fibroblast growth factor (Boehringer Mannheim Biochemicals) [reference compound] | failed to induce | No tyrosine-phosphorylated gp145^trkB was detected | – |
| insulin: insulin (Sigma) [reference compound] | failed to induce | No tyrosine-phosphorylated gp145^trkB was detected | – |
| B1 | – | strong phosphorylation | time to detection of trkB tyrosine phosphorylation (gp145^trkB): one; time to maximal levels of trkB tyrosine phosphorylation (gp145^trkB): ≤ 5 min; concentration giving maximal gp145^trkB phosphorylation (gp145^trkB): 50 ng/mL; stimulation of trkB tyrosine phosphorylation (trkB): stimulated |

From patent US6071709A, “Nerve growth factor/receptor complex” (The United States of America as represented by the …, priority 1992, dated 2000)
